Measured values from the supplement of paper PMC4858399.
Where a name gives a salt, the structure may show the parent alone.

Key:
[1] = tested on: Caenorhabditis elegans N2; assay: mean nematode size ln(EXT) after 48 h, plate-adjusted (DMSO control set to 6) (ln(EXT), control-adjusted); higher = larger nematodes / less growth inhibition; details: exposure time 48 h
Outline: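 Each treatment used 4–6 wells of 50 synchronised C. elegans N2 L1 larvae, kept for 48 h at 20°C in K-medium with killed OP50, 1% DMSO and 0.5–200 µM chemical. Debris was excluded by a growth model after the Biosort measured per-worm extinction. Mean size per well came from natural-logged values and was plate-adjusted. That adjustment subtracted the vehicle control mean and then added 6.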

[2] = tested on: Caenorhabditis elegans N2; assay: lowest effective concentration for larval growth inhibition (size below effect threshold); higher = less potent; details: exposure time 48 h
Outline: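 L1 larvae of C. elegans N2 (50 per 96-well) were grown in K-medium with killed bacteria and 1% DMSO, with the chemical at 0.5, 1, 5, 10, 50, 100 or 200 µM, for 48 h at 20°C. Per-worm extinction from the Biosort stood for size and was log-transformed into well means. For each chemical, the lowest effective concentration is the first dose where plate-adjusted mean size falls under the threshold and stays under it at the higher doses, using a threshold of 5.665.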

SMILES	mean nematode size ln(EXT) (ln) ([1]; 0.5 µM)	mean nematode size ln(EXT) (ln) ([1]; 1 µM)	mean nematode size ln(EXT) (ln) ([1]; 5 µM)	mean nematode size ln(EXT) (ln) ([1]; 10 µM)	mean nematode size ln(EXT) (ln) ([1]; 50 µM)	mean nematode size ln(EXT) (ln) ([1]; 100 µM)	mean nematode size ln(EXT) (ln) ([1]; 200 µM)	lowest effective concentration [2] [µM]
C=CC(=C)CCC=C(C)C [Myrcene]	5.79	5.75	5.76	5.75	5.73	5.71	5.71	> 200
CC(C)c1cccc(C(C)C)c1NC(=O)NS(=O)(=O)c1cc(C(C)(C)O)co1	5.93	5.86	5.97	5.91	6	5.8	5.79	> 200
CCOC(=O)CCC(=O)OCC [Butanedioic acid, diethyl ester]	5.83	5.91	5.87	5.89	5.9	5.98	5.75	> 200
CC(C)(C)OOC(=O)c1ccccc1 [tert-Butyl perbenzoate]	6.05	6.11	6.1	6.03	6	6.09	5.87	> 200
CC(C)(C)c1ccccc1 [tert-Butylbenzene]	5.94	6.02	6.07	6.05	6.22	6.12	5.79	> 200
Cc1c(-c2cccnc2)c2ccccc2n1CCCCC(=O)O [5-[2-methyl-3-(pyridin-3-yl)-1H-indol-1-yl]pentanoic acid]	5.93	5.89	5.78	5.84	5.83	5.87	5.7	> 200
CNC(=O)Oc1cccc2ccccc12 [Carbaryl]	5.78	5.79	5.6	5.71	5.83	5.72	5.67	> 200
CCNc1cccc(C)c1 [N-Ethyl-3-methylaniline]	5.68	5.72	5.59	5.59	5.63	5.72	5.63	200
Cc1ccccc1[N+](=O)[O-] [2-Nitrotoluene]	5.85	5.89	6.04	5.77	5.91	5.76	5.7	> 200
OCC1CO1 (centres undefined) [Glycidol]	5.87	5.79	5.81	5.79	5.78	5.49	5.83	> 200
CNC(=O)O/N=C(\SC)C(=O)N(C)C [Oxamyl]	6.13	6.48	6.09	6.33	6.42	6.43	5.75	> 200
CCc1ccc(CCOc2ccc(CC3SC(=O)NC3=O)cc2)nc1 (centres undefined) [Pioglitazone HCl]	5.98	5.94	5.95	5.96	5.91	5.87	5.76	> 200
CN1COCN(Cc2cnc(Cl)s2)/C1=N\[N+](=O)[O-] [Thiamethoxam]	5.81	5.7	5.73	5.88	5.8	5.88	5.91	> 200
CCOC(=O)COc1cc(-c2nn(C)c(OC(F)F)c2Cl)c(F)cc1Cl [Pyraflufen-ethyl]	5.75	5.74	5.74	5.85	5.98	6.02	5.88	> 200
C1N2CN3CN1CN(C2)C3 [Hexamethylenetetramine]	5.69	5.77	5.6	5.54	5.51	5.41	5.6	5
COCC(=O)N(c1c(C)cccc1C)C(C)C(=O)OC (centres undefined) [Metalaxyl]	6.15	6.19	6.16	6	6.14	6.18	5.98	> 200
Oc1ccc2ccccc2c1N=Nc1ccccc1 [Sudan I]	5.91	5.88	5.87	5.83	5.7	5.77	5.68	> 200
CC(C)C1(C)N=C(c2ncccc2C(=O)O)NC1=O (centres undefined) [Imazapyr]	5.84	5.98	6.01	5.97	5.9	5.84	5.77	> 200
O=C(O)C1(C(=O)Nc2ccc(Cl)cc2Cl)CC1 [Cyclanilide]	6.16	6.05	6.18	6.27	6.34	6.38	5.9	> 200
O=C1O[C@H]([C@H](O)CO)C([O-])=C1O.[Na+] [Sodium erythorbate]	5.96	5.89	5.94	5.98	6	5.9	5.68	> 200
CCCN(CCC)C(=O)SCC [EPTC]	6.11	6.22	6.09	6	6.1	6.12	5.86	> 200
COC(=O)CC(=O)OC [Dimethyl malonate]	5.85	5.89	5.88	6.13	5.87	5.89	5.75	> 200
CNC(=O)O/N=C/C(C)(C)SC [Aldicarb]	5.86	5.88	5.74	5.74	5.55	5.25	5.75	> 200
O=Cc1ccco1 [Furfural]	5.92	5.88	5.88	5.91	5.95	5.83	5.82	> 200
S=C1NCCN1 [Ethylenethiourea]	6.18	5.97	6.08	6.19	6.12	6.12	5.69	> 200
CCCc1cc(=O)[nH]c(=S)[nH]1 [6-Propyl-2-thiouracil]	5.8	5.84	5.82	5.91	5.8	5.88	5.74	> 200
CCCC(=O)OCC [Ethyl butyrate]	5.9	5.93	5.96	6.03	5.94	5.91	5.82	> 200

SMILES	mean nematode size ln(EXT) (ln) ([1]; 0.5 µM)	mean nematode size ln(EXT) (ln) ([1]; 1 µM)	mean nematode size ln(EXT) (ln) ([1]; 5 µM)	mean nematode size ln(EXT) (ln) ([1]; 10 µM)	mean nematode size ln(EXT) (ln) ([1]; 50 µM)	mean nematode size ln(EXT) (ln) ([1]; 100 µM)	mean nematode size ln(EXT) (ln) ([1]; 200 µM)	lowest effective concentration [2] [µM]
OC[C@H]1O[C@@H]2O[C@H]3[C@H](O)[C@@H](O)[C@@H](O[C@H]4[C@H](O)[C@@H](O)[C@@H](O[C@H]5[C@H](O)[C@@H](O)[C@@H](O[C@H]6[C@H](O)[C@@H](O)[C@@H](O[C@H]7[C@H](O)[C@@H](O)[C@@H](O[C@H]1[C@H](O)[C@H]2O)O[C@@H]7CO)O[C@@H]6CO)O[C@@H]5CO)O[C@@H]4CO)O[C@@H]3CO [alpha-Cyclodextrin]	5.83	5.83	5.77	5.87	5.88	5.82	5.74	> 200
COC(=O)c1ccccc1C(=O)O [Methyl hydrogen phthalate]	6.07	6.01	6.1	6.07	6.14	6.14	5.95	> 200
C#C[C@]1(O)CC[C@H]2[C@@H]3CCc4cc(O)ccc4[C@H]3CC[C@@]21C [17alpha-Ethynylestradiol]	6	5.96	5.9	5.91	6	5.86	5.92	> 200
C#CCN1C(=O)COc2cc(F)c(N3C(=O)C4=C(CCCC4)C3=O)cc21 [Flumioxazin]	5.98	5.91	5.92	5.99	5.98	5.87	6	> 200
C[N+]1(C)CCCCC1 [Mepiquat chloride]	5.73	5.8	6	5.91	5.96	6.13	5.9	> 200
C1CC2OC2CC1C1CO1 (mixture of isomers) [Vinylcyclohexene dioxide, mixture of isomers]	5.91	5.97	5.93	5.74	5.93	5.91	5.7	> 200
CN(Cc1cnc2nc(N)nc(N)c2n1)c1ccc(C(=O)N[C@@H](CCC(=O)O)C(=O)O)cc1 [Methotrexate]	5.83	5.86	5.81	5.85	5.84	5.82	5.75	> 200
CC1=C(C)S(=O)(=O)CCS1(=O)=O [Dimethipin]	5.96	5.96	5.91	5.93	5.98	6	5.93	> 200
CC(=O)OCCC(C)C [Isoamyl acetate]	5.95	5.84	5.89	5.79	5.86	5.83	5.75	> 200
N#C[C@@H]1CC(F)(F)CN1C(=O)CNC1CC2CCC(C1)N2c1ncccn1 (some centres undefined)	5.82	5.89	5.85	6	5.95	5.78	5.85	> 200
CC(C)CCCCCCOC(=O)CCCCC(=O)OCCCCCCC(C)C [Diisononyl adipate]	5.94	5.98	5.93	5.92	5.87	5.91	5.69	> 200
CC(O)CO (centres undefined) [Propylene glycol]	6.09	5.99	6.05	6.02	5.91	5.9	5.71	> 200
COP(N)(=O)SC (centres undefined) [Methamidophos]	5.74	5.85	5.85	5.88	5.89	5.93	5.87	> 200
Cc1cc(=O)[nH]c(=S)[nH]1 [Methylthiouracil]	6.01	5.97	5.94	5.97	6	6.12	5.98	> 200
NS(=O)(=O)c1cc2c(cc1Cl)NCNS2(=O)=O [Hydrochlorothiazide]	5.86	5.85	5.85	5.83	5.76	5.46	5.83	> 200
CC(=O)OCC(COC(C)=O)OC(C)=O [Triacetin]	5.85	5.99	5.89	5.85	5.97	5.78	5.73	> 200
Cn1ccnc1S [Methimazole]	5.77	5.89	5.88	5.83	5.91	5.9	5.95	> 200
CCCCCCCC=O [Octanal]	6	5.82	5.94	5.77	5.88	5.84	5.77	> 200
CCCCCCCCCCCCCCCC [Hexadecane]	5.93	5.9	5.89	5.89	5.86	5.83	5.72	> 200
ClC1C(Cl)C(Cl)C(Cl)C(Cl)C1Cl (stereo not drawn) [beta-1,2,3,4,5,6-Hexachlorocyclohexane]	5.52	5.63	5.65	5.7	5.74	5.75	5.87	> 200
CCOC(N)=O [Urethane (ethyl carbamate)]	5.96	5.93	5.97	6	5.95	5.91	5.97	> 200
O=S1(=O)CCCO1 [1,3-Propane sultone]	5.83	5.87	5.85	5.78	5.84	5.91	5.76	> 200
Oc1ccccc1Cl [2-Chlorophenol]	5.99	5.99	6.06	6.11	6.21	6.13	5.71	> 200
Cc1ccc(N)cc1 [4-Methyl-benzeneamine]	5.89	5.85	5.89	5.88	5.79	5.85	5.71	> 200
Cc1ccc([N+](=O)[O-])cc1C [1,2-Dimethyl-4-nitrobenzene]	5.84	5.96	5.89	5.8	5.86	5.8	5.81	> 200
CCOC(=O)CC(SP(=O)(OC)OC)C(=O)OCC (centres undefined) [Malaoxon]	5.9	5.85	6.21	5.99	5.89	5.94	5.83	> 200
